Reference: patent publication US20200024278A1, “COMPOSITION COMPRISING ANTIBIOTIC COMPOUND AND AN HETEROCYCLIC COMPOUND AND THEIR USE IN PREVENTING OR TREATING BACTERIAL INFECTIONS” (MUTABILIS, priority 2016, published 2020)
Counter-ions that a name gives are not always drawn.

Experiments:
PAE UFR48 = experiment: Fractional Inhibitory Concentration Index, checkerboard assay; assay type: cell-based, P. aeruginosa
Experimental: (§1) Method 2: Determination of the Fractional Inhibitory Concentration Index
(§2) Serial 2-fold dilutions of each antibiotic tested were prepared in ca-MHB and mixed in each well of a 96-well microtiter plate so that each row (and column) contained a fixed amount of one agent and increasing amounts of the second agent. The range of drug concentrations used in the checkerboard analysis was such that the dilution range encompassed the MIC for each drug used in the analysis. Broth microdilution plates were inoculated with each strain (Table 3) to yield 5.10^5 CFU/mL in a 100 μL final volume and incubated for 18 h at 35° C. in ambient air. Assays including Fosfomycin were supplemented with 25 μg/ml of Glucose-6-phosphate. MICs were determined after overnight incubation, and the fractional inhibitory concentration (FIC) index was calculated for each well. The FIC index (FICI) was calculated for each combination according to the equation FICI=FICa+FICb=(MIC of drug A in combination/MIC of drug A alone)+(MIC of drug B in combination/MIC of drug B alone). The FICI was interpreted as follows: synergy, FICI […]; indifference, 0.5<FIC<4; and antagonism, FICI>4. The checkerboard assays were performed in duplicate.

PAE UFR90 = experiment: as above; assay type: cell-based, P. aeruginosa
Experimental: as §1, §2

ECO 190317 = experiment: as above; assay type: cell-based, E. coli
Experimental: as §1, §2

KPN UFR68 = experiment: as above; assay type: cell-based, K. pneumoniae
Experimental: as §1, §2

ECL P99 = experiment: as above; assay type: cell-based, E. cloacae
Experimental: as §1, §2

ABA UFR157 = experiment: MIC, broth microdilution (CLSI), substance alone or ATB combined with compound at 4 or 8 μg/mL; assay type: cell-based, A. baumannii; settings: Acinetobacter baumannii, substance alone, read-out: MIC
Summary of the method: (§3)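 Broth microdilution; ca-MHB; 5·10^5 CFU/mL; 35° C, 16-20 h; compound alone or fixed 4/8 μg/mL with antibiotic series; endpoint = no visible growth.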

ABA UFR161 = experiment: as above; assay type: cell-based, A. baumannii; settings: Acinetobacter baumannii, substance alone, read-out: MIC
Summary of the method: as §3

ABA 19606 = experiment: as above; assay type: cell-based, A. baumannii; settings: Acinetobacter baumannii, substance alone, read-out: MIC
Summary of the method: as §3

ABA UFR158 = experiment: as above; assay type: cell-based, A. baumannii; settings: Acinetobacter baumannii, substance alone, read-out: MIC
Summary of the method: as §3

ABA UFR160 = experiment: as above; assay type: cell-based, A. baumannii; settings: Acinetobacter baumannii, substance alone, read-out: MIC
Summary of the method: as §3

ABA UFR153 = experiment: as above; assay type: cell-based, A. baumannii; settings: Acinetobacter baumannii, substance alone, read-out: MIC
Summary of the method: as §3

ABA UFR155 = experiment: as above; assay type: cell-based, A. baumannii; settings: Acinetobacter baumannii, substance alone, read-out: MIC
Summary of the method: as §3

ABA 107292 = experiment: as above; assay type: cell-based, A. baumannii; settings: Acinetobacter baumannii, substance alone, read-out: MIC
Summary of the method: as §3

ABA UFR159 = experiment: as above; assay type: cell-based, A. baumannii; settings: Acinetobacter baumannii, substance alone, read-out: MIC
Summary of the method: as §3

ABA UFR154 = experiment: as above; assay type: cell-based, A. baumannii; settings: Acinetobacter baumannii, substance alone, read-out: MIC
Summary of the method: as §3

ABA UFR151 = experiment: as above; assay type: cell-based, A. baumannii; settings: Acinetobacter baumannii, substance alone, read-out: MIC
Summary of the method: as §3

With `NC[C@@H]1CC(=NOCC(N)=O)[C@@H]2CN1C(=O)N2OS(=O)(=O)[O-].O=C(O)C(F)(F)F.[Na+]` [Example 4, 2,2,2-trifluroacetate and sodium [(2S,5S)-4-(2-amino-2-oxo-ethoxy)imino-2-(azaniumylmethyl)-7-oxo-1,6-diazabicyclo[3.2.1]octan-6-yl] sulfate] the FIC index min (PAE UFR48; compound +ATM) was 0.50, the FIC index min (PAE UFR48; compound +FEP) was 0.63 and the FIC index min (PAE UFR48; compound +FOS) was 1.20. It also gave an FIC index min (PAE UFR48; compound +MEM) of 0.63, an FIC index min (PAE UFR48; compound +PIP) of 0.44 and an FIC index min (PAE UFR90; compound +ATM) of 0.53. For the same molecule, the FIC index min (PAE UFR90; compound +FEP) was 0.63, the FIC index min (PAE UFR90; compound +FOS) was 0.63 and the FIC index min (PAE UFR90; compound +MEM) was 1.0. The FIC index min (PAE UFR90; compound +PIP) was 0.75, the FIC index min (ECO 190317; compound +ATM) was 0.57 and the FIC index min (ECO 190317; compound +FEP) was 0.31. The FIC index min (ECO 190317; compound +FOS) was 0.53, the FIC index min (ECO 190317; compound +MEM) was 0.87 and the FIC index min (ECO 190317; compound +PIP) was no more than 0.74. For the same molecule, the FIC index min (KPN UFR68; compound +ATM) was no more than 0.023, the FIC index min (KPN UFR68; compound +FEP) was no more than 0.006 and the FIC index min (KPN UFR68; compound +FOS) was no more than 0.035. The FIC index min (KPN UFR68; compound +MEM) was no more than 0.023, the FIC index min (KPN UFR68; compound +PIP) was no more than 0.063 and the FIC index min (ECL P99; compound +ATM) was 0.63. It also gave an FIC index min (ECL P99; compound +FEP) of 0.44, an FIC index min (ECL P99; compound +FOS) of no more than 0.25 and an FIC index min (ECL P99; compound +MEM) of 0.44. The FIC index min (ECL P99; compound +PIP) was 0.56.

In the case of `NCCCn1c2c(sc1=O)C1CN(C2)C(=O)N1OS(=O)(=O)O` (centres unmarked) [Example 10, [5-(3-aminopropyl)-4,9-dioxo-3-thia-5,8,10-triaza-tricyclo[6.2.1.0^2,6]undec-2(6)-en-10-yl] hydrogen sulfate], the MIC (ABA UFR157) is reported as greater than 32 µg/mL, the MIC (ABA UFR161) is reported as greater than 32 µg/mL and the MIC (ABA 19606) is reported as 32 µg/mL. It also gave an MIC (ABA UFR158) greater than 32 µg/mL, an MIC (ABA UFR160) greater than 32 µg/mL and an MIC (ABA UFR153) of 32 µg/mL. The MIC (ABA UFR155) was greater than 32 µg/mL, the MIC (ABA 107292) was greater than 32 µg/mL and the MIC (ABA UFR159) was greater than 32 µg/mL. The MIC (ABA UFR154) was greater than 32 µg/mL and the MIC (ABA UFR151) was greater than 32 µg/mL.

With `O=C1N2CC(n3cccn3)=CC(C2)N1OS(=O)(=O)[O-].[Na+]` (centres unmarked) [Example 11, sodium (7-oxo-3-pyrazol-1-yl-1,6-diazabicyclo[3.2.1]oct-3-en-6-yl) sulfate] the MIC (ABA UFR157) was greater than 32 µg/mL, the MIC (ABA UFR161) was greater than 32 µg/mL and the MIC (ABA 19606) was greater than 32 µg/mL. The MIC (ABA UFR158) was greater than 32 µg/mL, the MIC (ABA UFR160) was greater than 32 µg/mL and the MIC (ABA UFR153) was greater than 32 µg/mL. For the same molecule, the MIC (ABA UFR155) was greater than 32 µg/mL, the MIC (ABA 107292) was greater than 32 µg/mL and the MIC (ABA UFR159) was greater than 32 µg/mL. The MIC (ABA UFR154) was greater than 32 µg/mL and the MIC (ABA UFR151) was greater than 32 µg/mL.
